Reference: patent US20180289957A1, “REMINERALISATION OF CALCIFIED TISSUE” (Reminova Ltd., priority 2008, published 2018)

Tested on: extracted incisor tooth
Experiment: Tooth-whitening effect on extracted incisor tooth, images before and after treatment
Settings: 2 minutes pre-conditioning with solution, no remineralising agent
Text: This image was taken prior to any treatment being carried out.
The dark discolourations in the enamel of the crown of the tooth adjacent to the cavity have also disappeared.

OCl [hypochlorite, sodium hypochlorite]
tooth discolouration, difference versus before treatment: very little difference
